Read-outs that look alike come from different tables or passages of the source.
Target: T1, PDE2 (Homo sapiens, UniProt O00408)
T1 construct: PDE2 was isolated from human platelets, provided by Etablissement Français du Sang-Alsace; tissue Etablissement Français du Sang-Alsace; host or cells: human platelets
Assay: Inhibition of PDE2 (radioenzymatic phosphodiesterase assay)
Type: biochemical
Conditions: 10 μM compound, 1 μM cyclic AMP
Description: 2.1.1. Isolation of Phosphodiesterases from Smooth Muscle A 3 g segment of bovine aortic media cut into pieces with scissors was homogenized with an ultra-turrax then a potter glass/glass homogenizer in 7 volumes by weight of buffer A containing a protease inhibitor cocktail (20 mM Tris-HCl, 0.25 M saccharose, 2 mM magnesium acetate, 1 mM dithiothreitol, 5 mM EGTA, 2000 U/ml aprotinin, 10 mg/l leupeptin and 10 mg/l soya trypsic inhibitor). The homogenizate was centrifuged at 105,000 g for 1 hour. The supernatant was loaded on a DEAE-Sephacel column (15×1.6 cm) pre-equilibrated with buffer B (buffer A without the saccharose, EGTA and protease inhibitors). The column was washed until there was no detectable absorption at 280 nm, then eluted with a linear gradient of NaCl (0-0.5 M) in buffer B. 3-ml fractions were collected and enzyme activity was determined under the conditions described hereinbelow to localize the different enzymes PDE1, PDE3, PDE4 and PDE5 which were aliquoted and frozen at −80° C. (Lugnier et al., Biochem. Phamacol., 1986, 35: 1746-1751). PDE2 was isolated from human platelets, provided by Etablissement Français du Sang-Alsace, according to Kameni Tcheudji J F et al., (J. Mol. Biol. 2001; 310: 181-791), and stored until use at −80° C. in small aliquots.
Cyclic nucleotide phosphodiesterase activity was determined by a radioenzymatic method using tritium-labelled cyclic GMP or AMP (1 μM) as substrate (Lugnier et al., 1986). ^3H-labelled adenosine or guanosine monophosphate formed by hydrolysis of the radiolabelled cyclic nucleotide was then converted to ^3H-labelled adenosine or guanosine in a second reaction with […] in excess. The nucleoside formed was separated from the nucleotides by anion exchange chromatography. Nucleoside radioactivity was determined by liquid scintillation counting. Enzymatic incubations were carried out under conditions allowing no more than 15% hydrolysis of the substrate; each point was performed in duplicate.
The concentration of substance which inhibits enzymatic activity by 50% (IC50) at 1 μM cyclic AMP was calculated by nonlinear regression from the experimental values of hydrolysis rate (Prism, GraphPad).

[1] = read-out: PDE2 percentage inhibition at 10 μM, Table 1
[2] = Table 1, read-out: PDE2 percentage inhibition at 10 μM

T1 sequence (O00408 whole entry): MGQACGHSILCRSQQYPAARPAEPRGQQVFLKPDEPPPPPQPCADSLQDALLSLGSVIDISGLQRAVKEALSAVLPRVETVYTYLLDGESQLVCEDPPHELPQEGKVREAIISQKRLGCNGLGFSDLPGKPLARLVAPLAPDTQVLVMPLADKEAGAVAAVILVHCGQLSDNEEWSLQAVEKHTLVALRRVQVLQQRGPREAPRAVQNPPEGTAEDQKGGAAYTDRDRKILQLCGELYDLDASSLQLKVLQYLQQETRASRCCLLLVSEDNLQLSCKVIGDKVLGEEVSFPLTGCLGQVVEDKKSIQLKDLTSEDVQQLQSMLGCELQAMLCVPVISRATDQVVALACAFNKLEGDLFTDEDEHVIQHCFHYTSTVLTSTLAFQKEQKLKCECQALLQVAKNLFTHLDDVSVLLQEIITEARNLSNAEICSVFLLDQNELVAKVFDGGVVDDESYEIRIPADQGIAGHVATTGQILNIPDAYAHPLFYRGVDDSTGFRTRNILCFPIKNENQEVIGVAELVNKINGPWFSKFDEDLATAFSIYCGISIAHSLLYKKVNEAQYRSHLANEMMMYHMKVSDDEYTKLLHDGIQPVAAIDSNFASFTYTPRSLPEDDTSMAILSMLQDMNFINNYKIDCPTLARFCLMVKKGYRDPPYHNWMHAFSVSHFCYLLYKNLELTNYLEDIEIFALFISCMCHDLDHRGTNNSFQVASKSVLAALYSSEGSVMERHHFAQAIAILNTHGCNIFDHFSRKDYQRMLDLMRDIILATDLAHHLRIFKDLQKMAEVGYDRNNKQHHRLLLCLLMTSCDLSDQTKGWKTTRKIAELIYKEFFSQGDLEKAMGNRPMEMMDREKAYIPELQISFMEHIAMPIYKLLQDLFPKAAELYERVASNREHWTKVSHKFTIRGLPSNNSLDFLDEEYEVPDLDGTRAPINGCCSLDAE

SMILES | inhibition at 10 µM [1] | also measured
COc1cc2c(c(OC)c1-c1ccccc1)C(c1cccc(C(N)=O)c1)=NCC(=O)N2CCCc1ccccc1 [Compound 26, 3-[6,8-Dimethoxy-2-oxo-7-phenyl-1-(3-Phenyl-propyl)-2,3-dihydro-1H-benzo[e][1,4]diazepin-5-yl]-benzamide] | 5% | –
CCCN1C(=O)CN=C(c2cccc(C(N)=O)c2)c2c1cc(OC)c(-c1ccccc1)c2OC [Compound 22, 3-(6,8-Dimethoxy-2-oxo-7-phenyl-1-propyl-2,3-dihydro-1H-benzo[e][1,4]diazepin-5-yl)-benzamide] | 16% | –
COc1cc2c(c(OC)c1-c1ccccc1)C(c1cccc(C(N)=O)c1)=NCC(=O)N2CC1CC1 [Compound 23, 3-(1-Cyclopropylmethyl-6,8-dimethoxy-2-oxo-7-phenyl-2,3-dihydro-1H-benzo[e][1,4]diazepin-5-yl)-benzamide] | 15% | –
COc1cc2c(c(OC)c1-c1cccnc1)C(c1cccc(C(N)=O)c1)=NCC(=O)N2 [Compound 19, 3-(6,8-Dimethoxy-2-oxo-7-pyridin-3-yl-2,3-dihydro-1H-benzo[e][1,4]diazepin-5-yl)-benzamide] | – | PDE2 percentage inhibition at 10 μM (Table 1): 27%
COc1cc2c(c(OC)c1-c1ccccc1)C(c1cccc(C#N)c1)=NCC(=O)N2CCCc1ccccc1 [Compound 16, 3-[6,8-Dimethoxy-2-oxo-7-phenyl-1-(3-phenyl-propyl)-2,3-dihydro-1H-benzo[e][1,4]diazepin-5-yl]-benzonitrile] | 18% | –
COc1cc2c(c(OC)c1-c1ccccc1)C(c1cccc(C#CCN)c1)=NCC(=O)N2C [Compound 31, 5-[3-(3-Amino-prop-1-ynyl)-phenyl]6,8-dimethoxy-1-methyl-7-phenyl-1,3-dihydro-benzo[e][1,4]diazepin-2-one] | 42% | –
COc1cc2c(c(OC)c1-c1ccccc1)C(c1cccc(CCCN)c1)=NCC(=O)N2C [Compound 32, 5-[3-(3-Amino-propyl)-phenyl]-6,8-dimethoxy-1-methyl-7-phenyl-1,3-dihydro-benzo[e][1,4]diazepin-2-one] | 22% | –
COc1cc2c(c(OC)c1-c1ccccc1)C(c1ccccc1)=NCC(=O)N2 [Compound 3, 6,8-Dimethoxy-5,7-diphenyl-1,3-dihydro-benzo[e][1,4]diazepin-2-one] | – | inhibition at 10 µM [2]: 25%
COCC#Cc1cccc(C2=NCC(=O)N(C)c3cc(OC)c(-c4ccccc4)c(OC)c32)c1 [Compound 27, 6,8-Dimethoxy-5-[3-(3-methoxy-prop-1-ynyl)-phenyl]-1-methyl-7-phenyl-1,3-dihydro-benzo[e][1,4]diazepin-2-one] | 83% | –
COc1cc2c(c(OC)c1-c1ccccc1)C(c1cccc(C(N)=O)c1)=NCC(=O)N2Cc1ccc(C(F)(F)F)cc1 [Compound 25, 3-[6,8-Dimethoxy-2-oxo-7-phenyl-1-(4-trifluoromethyl-benzyl)-2,3-dihydro-1H-benzo[e][1,4]diazepin-5-yl]-benzamide] | 18% | –
CCN1C(=O)CN=C(c2cccc(C(N)=O)c2)c2c1cc(OC)c(-c1ccccc1)c2OC [Compound 21, 3-(6,8-Dimethoxy-2-oxo-7-phenyl-1-ethyl-2,3-dihydro-1H-benzo[e][1,4]diazepin-5-yl)-benzamide] | 31% | –
COc1cc2c(c(OC)c1-c1cccnc1)C(c1cccc(C#N)c1)=NCC(=O)N2 [Compound 4] | – | PDE2 percentage inhibition at 10 μM (Table 1): 4%
COc1cc2c(c(OC)c1-c1ccccc1)C(c1cccc(Br)c1)=NCC(=O)N2C [Compound 10, 5-(3-Bromo-phenyl)-6,8-dimethoxy-1-methyl-7-phenyl-1,3-dihydro-benzo[e][1,4]diazepin-2-one] | – | inhibition at 10 µM [2]: 86%
CCN1C(=O)CN=C(c2cccc(C#N)c2)c2c1cc(OC)c(-c1ccccc1)c2OC [Compound 11, 3-(6,8-Dimethoxy-2-oxo-7-phenyl-1-ethyl-2,3-dihydro-1H-benzo[e][1,4]diazepin-5-yl)-benzonitrile] | 10% | –
COc1cc2c(c(OC)c1-c1ccccc1)C(c1cccc(C#CCNC(=O)OC(C)(C)C)c1)=NCC(=O)N2C [Compound 28, {3-[3-(6,8-Dimethoxy-1-methyl-2-oxo-7-phenyl-2,3-dihydro-1H-benzo[e][1,4]diazepin-5-yl)-phenyl]-prop-2-ynyl}-carbamic acid tert-butyl ester] | 43% | –
COc1cc2c(c(OC)c1-c1ccccc1)C(c1cccc(C(N)=O)c1)=NCC(=O)N2Cc1ccccc1 [Compound 24, 3-(1-Benzyl-6,8-dimethoxy-2-oxo-7-phenyl-2,3-dihydro-1H-benzo[e][1,4]diazepin-5-yl)-benzamide] | 18% | –
CCCN1C(=O)CN=C(c2cccc(C#N)c2)c2c1cc(OC)c(-c1ccccc1)c2OC [Compound 12, 3-(6,8-Dimethoxy-2-oxo-7-phenyl-1-propyl-2,3-dihydro-1H-benzo[e][1,4]diazepin-5-yl)-benzonitrile] | 17% | –
COc1cc2c(c(OC)c1-c1ccccc1)C(c1cccc(C#N)c1)=NCC(=O)N2Cc1ccc(C(F)(F)F)cc1 [Compound 15, 3-[6,8-Dimethoxy-2-oxo-7-phenyl-1-(4-trifluoromethyl-benzyl)-2,3-dihydro-1H-benzo[e][1,4]diazepin-5-yl]-benzonitrile] | 9% | –
COc1cc2c(c(OC)c1-c1ccccc1)C(c1cccc(C#N)c1)=NCC(=O)N2Cc1ccccc1 [Compound 14, 3-(1-Benzyl-6,8-dimethoxy-2-oxo-7-phenyl-2,3-dihydro-1H-benzo[e][1,4]diazepin-5-yl)-benzonitrile] | 9% | –
COc1cc2c(c(OC)c1-c1ccccc1)C(c1cccc(C#CCNC(=O)OC(C)(C)C)c1)=NCC(=O)N2C [Compound 30, {3-[3-(6,8-Dimethoxy-1-methyl-2-oxo-7-phenyl-2,3-dihydro-1-benzo[e][1,4]diazepin-5-yl)-phenyl]-prop-2-ynyl}-carbamic acid tert-butyl ester] | – | PDE2 percentage inhibition at 10 μM (Table 1): 69%
COc1cc2c(c(OC)c1-c1ccccc1)C(c1cccc(C#N)c1)=NCC(=O)N2CC1CC1 [Compound 13, 3-(1-Cyclopropylmethyl-6,8-dimethoxy-2-oxo-7-phenyl-2,3-dihydro-1H-benzo[e][1,4]diazepin-5-yl)-benzonitrile] | 20% | –

— US20090215752A1, “Compounds, preparation and therapeutic use thereof” (priority 2005, published 2009)
